In patent US9791443B2, “Method for differentially quantifying naturally processed HLA-restricted peptides for cancer, autoimmune and infectious diseases immunotherapy development” (IMMATICS BIOTECHNOLOGIES GMBH, priority 2010, dated 2017):

Tested on: CD8+ T cells
Test: In vitro immunogenicity: priming of CD8+ T cells with pMHC/anti-CD28 coated beads (aAPC), A*2402 multimer staining
Format: cell-based, human
Settings: HLA-A*24 healthy donors, three stimulation cycles; for Positive donors/donors tested [%]: positive among evaluable donors, at least two donors evaluable per peptide; for Positive wells/wells tested [%]: positive among evaluable wells, at least 24 wells evaluable per peptide
Text: To get information regarding the immunogenicity of the TUMAPs of the present invention, we performed investigations using a well established in vitro stimulation platform already described by (Walter, S, Herrgen, L, Schoor, O, Jung, G, Wernet, D, Buhring, H J, Rammensee, H G, and Stevanovic, S; 2003, Cutting edge: predetermined avidity of human CD8 T cells expanded on calibrated MHC/anti-CD28-coated microspheres, J. Immunol., 171, 4974-4978).
In order to perform in vitro stimulations by artificial antigen presenting cells (aAPC) loaded with peptide-MHC complex (pMHC) and anti-CD28 antibody, we first isolated CD8 T cells from fresh HLA-A*24 leukapheresis products of healthy donors obtained from the Blood Bank Tuebingen.
CD8 T cells were either directly enriched from the leukapheresis product or PBMCs (peripheral blood mononuclear cells) were isolated first by using standard gradient separation medium (PAA, Cölbe, Germany). Isolated CD8 lymphocytes or PBMCs were incubated until use in T-cell medium (TCM) consisting of RPMI-Glutamax (Invitrogen, Karlsruhe, Germany) supplemented with 10% heat inactivated human AB serum (PAN-Biotech, Aidenbach, Germany), 100 U/ml Penicillin/100 μg/ml Streptomycin (Cambrex, Cologne, Germany), 1 mM sodium pyruvate (CC Pro, Oberdorla, Germany), 20 μg/ml Gentamycin (Cambrex). 2.5 ng/ml IL-7 (PromoCell, Heidelberg, Germany) and 10 U/ml IL-2 (Novartis Pharma, Nürnberg, Germany) were also added to the TCM at this step. Isolation of CD8+ lymphocytes was performed by positive selection using CD8 MicroBeads (Miltenyi Biotec, Bergisch-Gladbach, Germany).
Generation of pMHC/anti-CD28 coated beads, T-cell stimulations and readout was performed as described before (Walter et al. 4974-78) with minor modifications. Briefly, biotinylated peptide-loaded recombinant HLA-A*2402 molecules lacking the transmembrane domain and biotinylated at the carboxy terminus of the heavy chain were produced. The purified costimulatory mouse IgG2a anti human CD28 Ab 9.3 (Jung, Ledbetter, and Muller-Eberhard 4611-15) was chemically biotinylated using Sulfo-N-hydroxysuccinimidobiotin as recommended by the manufacturer (Perbio, Bonn, Germany).
800.000 beads/200 μl were coated in 96-well plates in the presence of 600 ng biotin anti-CD28 plus 200 ng relevant biotin-pMHC (high density beads). Stimulations were initiated in 96-well plates by co-incubating 1×10^6 CD8+ T cells with 2×10^5 washed coated beads in 200 μl TCM supplemented with 5 ng/ml IL-12 (PromoCell) for 3-4 days at 37° C. Half of the medium was then exchanged by fresh TCM supplemented with 80 U/ml IL-2 and incubating was continued for 3-4 days at 37° C. This stimulation cycle was performed for a total of three times. Finally, multimeric analyses were performed by staining the cells with Live/dead-Aqua dye (Invitrogen, Karlsruhe, Germany), CD8-FITC antibody clone SK1 (BD, Heidelberg, Germany) and PE- or APC-coupled A*2402 MHC multimers. For analysis, a BD LSRII SORP cytometer equipped with appropriate lasers and filters was used. Peptide specific cells were calculated as percentage of total CD8+ cells. Evaluation of multimeric analysis was done using the FlowJo software (Tree Star, Oregon, USA). In vitro priming of specific multimer+ CD8+ lymphocytes was detected by appropriate gating and by comparing to negative control stimulations.

Sequence	Positive donors/donors tested [%]	Positive wells/wells tested [%]
AYLVYTDRL (listed as Homo sapiens) [PPAP2C-001]	100%	54%
VFIFKGNQF (listed as Homo sapiens) [MMP3-001]	13%	1%
VYTTSYQQI (listed as Homo sapiens) [NFYB-001]	50%	7%
KYNDTFWKEF (listed as Homo sapiens) [HSP90B1-001]	50%	4%
NYLPFIMEL (listed as Homo sapiens) [UCHL5-001]	75%	14%
VYKVVGNLL (listed as Homo sapiens) [IQGAP3-001]	100%	24%
NYEETFPHI (listed as Homo sapiens) [MUC6-001]	50%	21%
VWSDVTPLTF [PROM1-001]	83%	26%
SYIDVLPEF (listed as Homo sapiens) [MET-006]	63%	22%
NYLLYVSNF [MMP11-001]	33%	11%
VYIEKNDKL (listed as Homo sapiens) [ERBB3-001]	83%	15%
TYGNLLDYL (listed as Homo sapiens) [ABL1-001]	50%	13%
LYQILQGIVF (listed as Homo sapiens) [CDC2-001]	88%	28%
SYNPLWLRI (listed as Homo sapiens) [ASPM-002]	63%	31%
HYKPTPLYF (listed as Homo sapiens) [SMC4-001]	75%	9%
RFLSGIINF (listed as Homo sapiens) [NUF2-002]	50%	4%
VFDTAIAHLF (listed as Homo sapiens) [SIAH2-001]	50%	4%
IYNGKLFDLL (listed as Homo sapiens) [KIF2C-001]	13%	2%
VYGIRLEHF (listed as Homo sapiens) [NUF2-001]	100%	25%
NYLLYVSNF [MST1R-001] (listed as Homo sapiens)	50%	14%
AYAIIKEEL (listed as Homo sapiens) [ATAD2-001]	50%	4%
FYISPVNKL (listed as Homo sapiens) [AVL9-001]	100%	50%
YYNAAGFNKL (listed as Homo sapiens) [UQCRB-001]	100%	38%
QYASRFVQL (listed as Homo sapiens) [PLK4-001]	60%	5%
RYLWATVTI (listed as Homo sapiens) [ASPM-001]	17%	3%
